ChEMBL document CHEMBL1287736, “Design of a novel class of biphenyl CETP inhibitors” (Bioorg Med Chem Lett, 2010)

Assays:
[1] = molecular target: T1, Cholesteryl ester transfer protein (Homo sapiens, UniProt P11597); assay: Inhibition of CETP-mediated neutral lipid transfer by fluorometric analysis
T1 sequence (P11597 whole entry): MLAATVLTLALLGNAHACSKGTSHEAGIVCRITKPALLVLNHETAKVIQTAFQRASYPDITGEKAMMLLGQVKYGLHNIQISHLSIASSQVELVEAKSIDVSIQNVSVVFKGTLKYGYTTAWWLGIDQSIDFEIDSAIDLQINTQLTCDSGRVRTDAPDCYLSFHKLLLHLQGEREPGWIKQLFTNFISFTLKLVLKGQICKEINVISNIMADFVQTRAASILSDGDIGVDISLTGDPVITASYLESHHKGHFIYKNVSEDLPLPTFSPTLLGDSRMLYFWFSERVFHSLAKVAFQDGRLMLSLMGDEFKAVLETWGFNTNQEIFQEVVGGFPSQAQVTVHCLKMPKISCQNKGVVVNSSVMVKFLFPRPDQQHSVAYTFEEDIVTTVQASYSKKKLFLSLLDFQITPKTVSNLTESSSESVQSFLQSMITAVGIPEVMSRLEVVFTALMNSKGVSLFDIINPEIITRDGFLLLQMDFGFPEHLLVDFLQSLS

[2] = system: Mus musculus; assay: Cardioprotective activity in transgenic B6 mouse expressing cynomolgus monkey CETP assessed as increase in HDL-cholesterol level at 100 mg/kg, po BID measured after 24 hrs of first dose; type: functional
[3] = system: Mus musculus; assay: Cardioprotective activity in transgenic B6 mouse expressing cynomolgus monkey CETP assessed as increase in HDL-cholesterol level at 1 mg/kg, po BID measured after 24 hrs of first dose; type: functional
[4] = system: Mus musculus; assay: Cardioprotective activity in transgenic B6 mouse expressing cynomolgus monkey CETP assessed as increase in HDL-cholesterol level at 3 mg/kg, po BID measured after 24 hrs of first dose; type: functional
[5] = system: Mus musculus; assay: Cardioprotective activity in transgenic B6 mouse expressing cynomolgus monkey CETP assessed as increase in HDL-cholesterol level at 10 mg/kg, po BID measured after 24 hrs of first dose; type: functional
[6] = system: Mus musculus; assay: Cardioprotective activity in transgenic B6 mouse expressing cynomolgus monkey CETP assessed as increase in HDL-cholesterol level at 30 mg/kg, po BID measured after 24 hrs of first dose; type: functional
[7] = system: Mus musculus; assay: Cardioprotective activity in po dosed transgenic B6 mouse expressing cynomolgus monkey CETP assessed as increase in HDL-cholesterol level administered BID measured after 24 hrs of first dose; type: functional, organism-based

| Structure (SMILES) | IC50 [1] [µM] | further results |
| --- | --- | --- |
| COC(=O)N(Cc1cc(C(F)(F)F)cc(C(F)(F)F)c1)Cc1ccccc1-c1cc(C(C)C)ccc1OC | 3.83 |  |
| COC(=O)N(Cc1cc(C(F)(F)F)cc(C(F)(F)F)c1)Cc1cc(C#N)ccc1-c1cc(C(C)C)ccc1OC | 0.224 |  |
| COC(=O)N(Cc1cc(C(F)(F)F)cc(C(F)(F)F)c1)Cc1cc(C(F)(F)F)ccc1-c1cc(C)ccc1OC | 0.469 | Activity [2]: 40% |
| COC(=O)N(Cc1cc(C(F)(F)F)cc(C(F)(F)F)c1)Cc1cc(Cl)ccc1-c1cc(C(C)C)ccc1OC | 1.43 |  |
| COC(=O)N(Cc1cc(C(F)(F)F)cc(C(F)(F)F)c1)Cc1cc(F)ccc1-c1cc(C(C)C)ccc1OC | 1.73 |  |
| COC(=O)N(Cc1cc(C(F)(F)F)cc(C(F)(F)F)c1)Cc1cc(C(F)(F)F)ccc1-c1cc(OC)ccc1OC | 0.444 |  |
| COC(=O)N(Cc1cc(C(F)(F)F)cc(C(F)(F)F)c1)Cc1cc(C(F)(F)F)ccc1-c1cc(C(C)(C)C)ccc1OC | 2.59 |  |
| COC(=O)N(Cc1cc(C(F)(F)F)cc(C(F)(F)F)c1)Cc1cc(C(F)(F)F)ccc1-c1cc(C(C)C)c(F)cc1OC | 0.117 |  |
| CCOc1ccc(C)cc1-c1ccc(C(F)(F)F)cc1CN(Cc1cc(C(F)(F)F)cc(C(F)(F)F)c1)C(=O)OC | 4.49 |  |
| COC(=O)N(Cc1cc(C(F)(F)F)cc(C(F)(F)F)c1)Cc1cc(C(F)(F)F)ccc1-c1cc(C(C)C)ccc1OC | 0.108 | Activity [3]: 37%; Activity [4]: 43%; Activity [5]: 54%; Activity [6]: 86%; Activity [7]: Dose-dependent effect |
| COC(=O)N(Cc1cc(C(F)(F)F)cc(C(F)(F)F)c1)Cc1cc(C(F)(F)F)ccc1-c1ccccc1OC | 1.6 |  |
| COC(=O)N(Cc1cc(C(F)(F)F)cc(C(F)(F)F)c1)Cc1cc(OC)ccc1-c1cc(C(C)C)ccc1OC | 0.694 |  |
| COC(=O)N(Cc1cc(C(F)(F)F)cc(C(F)(F)F)c1)Cc1cc(N)ccc1-c1cc(C(C)C)ccc1OC | 4.66 |  |
| CCc1ccc(OC)c(-c2ccc(C(F)(F)F)cc2CN(Cc2cc(C(F)(F)F)cc(C(F)(F)F)c2)C(=O)OC)c1 | 0.21 |  |
| COC(=O)N(Cc1cc(C(F)(F)F)cc(C(F)(F)F)c1)Cc1cc(I)ccc1-c1cc(C(C)C)ccc1OC | 0.365 |  |
| CCCc1ccc(OC)c(-c2ccc(C(F)(F)F)cc2CN(Cc2cc(C(F)(F)F)cc(C(F)(F)F)c2)C(=O)OC)c1 | 0.753 |  |
| COC(=O)N(Cc1cc(C(F)(F)F)cc(C(F)(F)F)c1)Cc1cc([N+](=O)[O-])ccc1-c1cc(C(C)C)ccc1OC | 0.134 |  |
| COC(=O)N(Cc1cc(C(F)(F)F)cc(C(F)(F)F)c1)Cc1cc(C(C)(C)C)ccc1-c1cc(C(C)C)ccc1OC | 9.51 |  |
